Measured values as given in patent US11395847B2, “Acylated GLP-1/GLP-2 dual agonists” (Zealand Pharma A/S, priority 2016, dated 2022).
Where a SMILES comes first, the peptide text is derived from it.

What was measured:
[1] = molecular target: T1, human GLP-1 receptor (Homo sapiens, UniProt P43220); assay: GLP-1 receptor potency assay (cAMP ALPHASCREEN, HEK293 cells stably expressing GLP-1 R); format: cell-based; details: cAMP response, HEK293 cells expressing human GLP-1 R
T1 construct: expressed in transfected cells
Description: One useful in vitro assay for measuring GLP-1 and GLP-2 receptor activity is quantitation of cAMP, i.e. 3′-5′-cyclic adenosine monophosphate, which is a second messenger essential in many biological processes, and one of the most ubiquitous mechanisms for regulating cellular functions.
The cDNA encoding the human glucagon-like peptide 1 receptor (GLP-1 R) (primary accession number P43220) was cloned from the cDNA BC112126 (MGC:138331/IMAGE:8327594). The DNA encoding the GLP-1-R was amplified by PCR using primers encoding terminal restriction sites for subcloning. The 5′-end primers additionally encoded a near Kozak consensus sequence to ensure efficient translation. […] The PCR products encoding the GLP-1-R were subcloned into a mammalian expression vector containing a neomycin (G418) resistance marker. The mammalian expression vectors encoding the GLP-1-R were transfected into HEK293 cells by a standard calcium phosphate transfection method. 48 hours post-transfection, cells were seeded for limited dilution cloning and selected with 1 mg/ml G418 in the culture medium. Following 3 weeks in G418 selection clones were picked and tested in a functional GLP-1 receptor potency assay as described below.
The cAMP ALPHASCREEN® assay from Perkin Elmer was used to quantitate the cAMP response to activation of the GLP1 and GLP2 receptor, respectively. […] Data from test compounds eliciting an increase in the intracellular level of cAMP were normalized relative to the positive and negative control (vehicle) to calculate the EC50 and maximal response from the concentration response curve.

[2] = molecular target: T2, human GLP-2 receptor (Homo sapiens, UniProt O95838, D470N); assay: GLP-2 receptor potency assay (cAMP ALPHASCREEN, HEK293 cells stably expressing GLP-2 R); format: cell-based; details: cAMP response, HEK293 cells expressing human GLP-2 R; read-out: EC50 GLP-2
T2 construct: expressed in transfected cells
T2 sequence (O95838 1-553 D470N): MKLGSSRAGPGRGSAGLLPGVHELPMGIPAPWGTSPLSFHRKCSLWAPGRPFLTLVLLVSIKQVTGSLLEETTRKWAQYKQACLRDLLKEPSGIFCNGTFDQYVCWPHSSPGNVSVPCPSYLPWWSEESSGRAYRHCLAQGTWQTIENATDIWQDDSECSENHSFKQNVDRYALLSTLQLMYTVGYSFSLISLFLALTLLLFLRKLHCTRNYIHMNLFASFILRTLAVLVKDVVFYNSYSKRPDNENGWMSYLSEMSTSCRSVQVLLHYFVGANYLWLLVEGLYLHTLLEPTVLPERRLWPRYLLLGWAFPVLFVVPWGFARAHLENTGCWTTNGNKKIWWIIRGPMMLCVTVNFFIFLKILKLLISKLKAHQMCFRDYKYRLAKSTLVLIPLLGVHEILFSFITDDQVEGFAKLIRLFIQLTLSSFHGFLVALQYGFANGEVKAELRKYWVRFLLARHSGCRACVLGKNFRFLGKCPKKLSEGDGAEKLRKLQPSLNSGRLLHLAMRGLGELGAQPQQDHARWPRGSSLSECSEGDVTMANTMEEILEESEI
How it was run: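 HEK293 clones stably transfected with the human GLP-2 receptor, selected with G418, were used. Intracellular cAMP was quantified by AlphaScreen. Responses were normalised to positive and vehicle controls, and EC50 and maximal response were taken from concentration-response curves.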

[3] = Chemical stability (RP-HPLC normalized purity after incubation at 40° C.); format: physicochemical; details: 14-day incubation, 0.2 mg/ml, normalized purity (area-%)
How it was run: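 Peptide at 0.2 mg/ml final in water adjusted to pH 6, 7, 7.5 or 9, incubated at 40° C for 14 days. Purity measured as main-peak area-% by C18 RP-HPLC (acetonitrile/TFA/water gradient, UV 220 nm) and normalized to T=0 set at 100 for each pH.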

T1 sequence (P43220 24-463): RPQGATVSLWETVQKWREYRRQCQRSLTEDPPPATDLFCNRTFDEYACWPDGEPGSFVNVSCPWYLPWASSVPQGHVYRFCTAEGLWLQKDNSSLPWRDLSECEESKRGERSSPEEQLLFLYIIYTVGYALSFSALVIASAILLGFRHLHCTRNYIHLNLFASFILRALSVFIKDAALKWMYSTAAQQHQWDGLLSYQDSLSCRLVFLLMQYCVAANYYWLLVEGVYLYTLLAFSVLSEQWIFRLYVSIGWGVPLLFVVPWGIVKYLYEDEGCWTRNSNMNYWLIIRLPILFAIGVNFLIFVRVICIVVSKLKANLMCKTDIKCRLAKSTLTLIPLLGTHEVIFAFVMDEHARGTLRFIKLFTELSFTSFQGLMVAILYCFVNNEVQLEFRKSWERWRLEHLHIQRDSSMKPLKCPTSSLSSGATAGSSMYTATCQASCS

SMILES	EC50 [1] [nM]	EC50 [2] [nM]	pH 6 normalized stability ([3]; pH 6, 40° C.)	pH 7 normalized stability ([3]; pH 7, 40° C.)
CC[C@H](C)[C@H](NC(=O)[C@H](Cc1ccccc1)NC(=O)[C@H](CC(=O)O)NC(=O)[C@H](CCCNC(=N)N)NC(=O)[C@H](C)NC(=O)[C@H](C)NC(=O)[C@H](CC(C)C)NC(=O)[C@H](CCCCNC(=O)CC[C@H](NC(=O)CCCCCCCCCCCCCCCCC(=O)O)C(=O)O)NC(=O)[C@H](CC(=O)O)NC(=O)[C@H](CC(C)C)NC(=O)[C@@H](NC(=O)[C@@H](NC(=O)[C@H](C)NC(=O)[C@H](CC(C)C)NC(=O)[C@H](CCC(=O)O)NC(=O)[C@H](CO)NC(=O)[C@H](CO)NC(=O)[C@H](Cc1ccccc1)NC(=O)[C@@H](NC(=O)CNC(=O)[C@H](CCC(=O)O)NC(=O)C(C)(C)NC(=O)[C@@H](N)Cc1c[nH]cn1)[C@@H](C)O)[C@@H](C)O)[C@@H](C)CC)C(=O)N[C@@H](C)C(=O)N[C@@H](Cc1c[nH]c2ccccc12)C(=O)N[C@@H](CC(C)C)C(=O)N[C@H](C(=O)N[C@@H](CCC(=O)O)C(=O)N[C@@H](Cc1c[nH]cn1)C(=O)N[C@@H](CCCCN)C(=O)N[C@H](C(=O)N[C@H](C(=O)N[C@@H](CC(=O)O)C(=O)O)[C@@H](C)O)[C@@H](C)CC)[C@@H](C)CC [Compound 10] (HELM PEPTIDE1{H.[Aib].E.G.T.F.S.S.E.L.A.T.I.L.D.K.L.A.A.R.D.F.I.A.W.L.I.E.H.K.I.T.D}|PEPTIDE2{[O=C(O)CCCCCCCCCCCCCCCCC(=O)[*:2]].[gGlu]}$PEPTIDE1,PEPTIDE2,16:R3-2:R2$$$V2.0)	1.8	0.087		
CC[C@H](C)[C@H](NC(=O)[C@H](Cc1ccccc1)NC(=O)[C@H](CC(=O)O)NC(=O)[C@H](CCCNC(=N)N)NC(=O)[C@H](C)NC(=O)[C@H](C)NC(=O)[C@H](CCCCNC(=O)COCCOCCNC(=O)[C@H](CCCCN)NC(=O)[C@H](CCC(=O)O)NC(=O)[C@H](CCCCN)NC(=O)CC[C@H](NC(=O)CCCCCCCCCCCCCCCCCCC(=O)O)C(=O)O)NC(=O)[C@H](C)NC(=O)[C@H](CC(=O)O)NC(=O)[C@H](CC(C)C)NC(=O)[C@@H](NC(=O)[C@@H](NC(=O)[C@H](C)NC(=O)[C@H](CC(C)C)NC(=O)[C@H](CCC(=O)O)NC(=O)[C@H](CO)NC(=O)[C@@H](NC(=O)[C@H](Cc1ccccc1)NC(=O)[C@H](CO)NC(=O)CNC(=O)[C@H](CCC(=O)O)NC(=O)C(C)(C)NC(=O)[C@@H](N)Cc1c[nH]cn1)[C@@H](C)O)[C@@H](C)O)[C@@H](C)CC)C(=O)N[C@@H](C)C(=O)N[C@@H](Cc1c[nH]c2ccccc12)C(=O)N[C@@H](CC(C)C)C(=O)N[C@H](C(=O)N[C@@H](CCC(=O)O)C(=O)N[C@@H](Cc1c[nH]cn1)C(=O)N[C@@H](CCCCN)C(=O)N[C@H](C(=O)N[C@H](C(=O)N[C@@H](CC(=O)O)C(=O)O)[C@@H](C)O)[C@@H](C)CC)[C@@H](C)CC [Compound 62] (HELM PEPTIDE1{H.[Aib].E.G.S.F.T.S.E.L.A.T.I.L.D.A.K.A.A.R.D.F.I.A.W.L.I.E.H.K.I.T.D}|PEPTIDE2{[O=C(O)CCCCCCCCCCCCCCCCCCC(=O)[*:2]].[gGlu].K.E.K.[O=C(COCCOCCN[*:1])[*:2]]}$PEPTIDE1,PEPTIDE2,17:R3-6:R2$$$V2.0)	0.27	0.15		
CC[C@H](C)[C@H](NC(=O)[C@H](Cc1ccccc1)NC(=O)[C@H](CC(=O)O)NC(=O)[C@H](CCCCNC(=O)COCCOCCNC(=O)[C@H](CCCCN)NC(=O)[C@H](CCC(=O)O)NC(=O)[C@H](CCCCN)NC(=O)CC[C@H](NC(=O)CCCCCCCCCCCCCCCCCCC(=O)O)C(=O)O)NC(=O)[C@H](C)NC(=O)[C@H](C)NC(=O)[C@H](CCC(N)=O)NC(=O)[C@H](CCC(=O)O)NC(=O)[C@H](CC(=O)O)NC(=O)[C@H](CC(C)C)NC(=O)[C@@H](NC(=O)[C@@H](NC(=O)[C@H](C)NC(=O)[C@H](CC(C)C)NC(=O)[C@H](CCC(=O)O)NC(=O)[C@H](CO)NC(=O)[C@@H](NC(=O)[C@H](Cc1ccccc1)NC(=O)[C@@H](NC(=O)CNC(=O)[C@H](CCC(=O)O)NC(=O)C(C)(C)NC(=O)[C@@H](N)Cc1c[nH]cn1)[C@@H](C)O)[C@@H](C)O)[C@@H](C)O)[C@@H](C)CC)C(=O)N[C@@H](C)C(=O)N[C@@H](Cc1c[nH]c2ccccc12)C(=O)N[C@@H](CC(C)C)C(=O)N[C@H](C(=O)N[C@@H](CCC(=O)O)C(=O)N[C@@H](Cc1c[nH]cn1)C(=O)N[C@@H](CCCCN)C(=O)N[C@H](C(=O)N[C@H](C(=O)N[C@@H](CC(=O)O)C(=O)O)[C@@H](C)O)[C@@H](C)CC)[C@@H](C)CC [Compound 65] (HELM PEPTIDE1{H.[Aib].E.G.T.F.T.S.E.L.A.T.I.L.D.E.Q.A.A.K.D.F.I.A.W.L.I.E.H.K.I.T.D}|PEPTIDE2{[O=C(O)CCCCCCCCCCCCCCCCCCC(=O)[*:2]].[gGlu].K.E.K.[O=C(COCCOCCN[*:1])[*:2]]}$PEPTIDE1,PEPTIDE2,20:R3-6:R2$$$V2.0)	0.13	0.35		
CC[C@H](C)[C@H](NC(=O)[C@H](Cc1ccccc1)NC(=O)[C@H](CC(=O)O)NC(=O)[C@H](CCCNC(=N)N)NC(=O)[C@H](C)NC(=O)[C@H](C)NC(=O)[C@H](CCC(N)=O)NC(=O)[C@H](CCCCNC(=O)CC[C@H](NC(=O)CCCCCCCCCCCCCCCCC(=O)O)C(=O)O)NC(=O)[C@H](CC(=O)O)NC(=O)[C@H](CC(C)C)NC(=O)[C@@H](NC(=O)[C@@H](NC(=O)[C@H](C)NC(=O)[C@H](CC(C)C)NC(=O)[C@H](CCC(=O)O)NC(=O)[C@H](CO)NC(=O)[C@@H](NC(=O)[C@H](Cc1ccccc1)NC(=O)[C@H](CO)NC(=O)CNC(=O)[C@H](CCC(=O)O)NC(=O)C(C)(C)NC(=O)[C@@H](N)Cc1c[nH]cn1)[C@@H](C)O)[C@@H](C)O)[C@@H](C)CC)C(=O)N[C@@H](C)C(=O)N[C@@H](Cc1c[nH]c2ccccc12)C(=O)N[C@@H](CC(C)C)C(=O)N[C@H](C(=O)N[C@@H](CCCCN)C(=O)N[C@@H](Cc1c[nH]cn1)C(=O)N[C@@H](CCCCN)C(=O)N[C@H](C(=O)N[C@H](C(=O)N[C@@H](CC(=O)O)C(=O)O)[C@@H](C)O)[C@@H](C)CC)[C@@H](C)CC [Compound 29] (HELM PEPTIDE1{H.[Aib].E.G.S.F.T.S.E.L.A.T.I.L.D.K.Q.A.A.R.D.F.I.A.W.L.I.K.H.K.I.T.D}|PEPTIDE2{[O=C(O)CCCCCCCCCCCCCCCCC(=O)[*:2]].[gGlu]}$PEPTIDE1,PEPTIDE2,16:R3-2:R2$$$V2.0)	0.31		A (>90% normalised stability)	B (>80% stability)
CC[C@H](C)[C@H](NC(=O)[C@H](Cc1ccccc1)NC(=O)[C@H](CC(=O)O)NC(=O)[C@H](CCCNC(=N)N)NC(=O)[C@H](C)NC(=O)[C@H](C)NC(=O)[C@H](CCCCNC(=O)COCCOCCNC(=O)[C@H](CCCCN)NC(=O)[C@H](CCC(=O)O)NC(=O)[C@H](CCCCN)NC(=O)CC[C@H](NC(=O)CCCCCCCCCCCCCCCCCCC(=O)O)C(=O)O)NC(=O)CNC(=O)[C@H](CCC(=O)O)NC(=O)[C@H](CC(C)C)NC(=O)[C@@H](NC(=O)[C@@H](NC(=O)[C@H](C)NC(=O)[C@H](CC(C)C)NC(=O)[C@H](CCC(=O)O)NC(=O)[C@H](CO)NC(=O)[C@@H](NC(=O)[C@H](Cc1ccccc1)NC(=O)[C@H](CO)NC(=O)CNC(=O)[C@H](CCC(=O)O)NC(=O)C(C)(C)NC(=O)[C@@H](N)Cc1c[nH]cn1)[C@@H](C)O)[C@@H](C)O)[C@@H](C)CC)C(=O)N[C@@H](C)C(=O)N[C@@H](Cc1c[nH]c2ccccc12)C(=O)N[C@@H](CC(C)C)C(=O)N[C@H](C(=O)N[C@@H](CCC(=O)O)C(=O)N[C@@H](Cc1c[nH]cn1)C(=O)N[C@@H](CCCCN)C(=O)N[C@H](C(=O)N[C@H](C(=O)N[C@@H](CC(=O)O)C(=O)O)[C@@H](C)O)[C@@H](C)CC)[C@@H](C)CC [Compound 61] (HELM PEPTIDE1{H.[Aib].E.G.S.F.T.S.E.L.A.T.I.L.E.G.K.A.A.R.D.F.I.A.W.L.I.E.H.K.I.T.D}|PEPTIDE2{[O=C(O)CCCCCCCCCCCCCCCCCCC(=O)[*:2]].[gGlu].K.E.K.[O=C(COCCOCCN[*:1])[*:2]]}$PEPTIDE1,PEPTIDE2,17:R3-6:R2$$$V2.0)	0.13	0.2		
